Results published in patent publication US6589990B1, “Methods and compositions for misoprostol compound treatment of erectile dysfunction” (priority 1997, dated 2003).
Where two headings read alike, the source gives them in different places.

Assays:
[1] = test system: vessels of the glans penis; assay: Vasodilatory action, into the corpus cavernosum versus topical; type: in vivo; conditions: external application; compared with misoprostol
Description: This is due to the differences in the mechanism of action on erectile function between misoprostol and other vasodilators (e.g. alprostadil): misoprostol applied topically can penetrate into the corpora cavernosa and can act on the smooth muscle fibers of the vessels, compared to other vasodilators. Further, its major site of action is on the vessels of the glans penis, and to a lesser extent, the prepuce.

[2] = test system: human male subjects having ED; assay: Clinical trials in human male subjects having ED; type: in vivo
Method: Subjects were 52 men aged 22-67 years, with ED of various causes. […] In all trials with these subjects, the following methods were applied successively for from a few days to 4 weeks: intracavernosal injection of 1.0 ml papaverine solution, 40 μγ/ml; […]; […]; topical application to the glans penis 0.08 to 0.1 ml, misoprostol gel 1000 μg/ml; intraurethral application of 0.08 to 0.1 ml misoprostol gel 1000 μg/ml; and topical application to the glans penis 0.1 ml. Gel of placebo.
In the tests using either the gel or cream containing about […] of misoprostol per 0.1 ml, the formulation was applied by the patients themselves using their finger and a few retroactive movements of the prepuce on the glans of penis until the ointment was completely absorbed. The intraurethral gel was instilled by the patients with help of a thin syringe and a lubricating medium (propylene glycol or glycerin) to facilitate insertion of the syringe.
In some patients with venous leak problems, a bandage tourniquet with a rubber band (or condom) on the base of the penis was applied 15-20 minutes after application of misoprostol. This method was particularly effective. […] In various subjects with ED due to one of several different causes, “pelvic exercises” were recommended (Kegel exercises) while the erection was developing. […] All tests were performed in the clinic without visual or any other type of stimulation.

Solubility in water = type: physicochemical
[3] = cited from earlier work
[4] = human, in vivo
[5] = Single high dosage, systemic undesirable effects (Example 9); conditions: in the presence of α-cyclodextrin
[6] = at 35° C.; cited from earlier work
[7] = total (N = 52), intracavernosal injection, 1 ml of 4%
[8] = total (N = 52), externally applied gel, 80-100 μg
[9] = total (N = 52), intraurethral applied gel, 80-100 μg
[10] = total (N = 52), intracavernosal injection, 0.5 ml of 1.0 mg/ml
[11] = total (N = 52), intraurethral ointment or γ-cyclodextrin complex in K-Y jelly, 1000 μg PGE1 in 0.1 ml

CCCCC(C)(O)C/C=C/[C@H]1[C@H](O)CC(=O)[C@@H]1CCCCCCC(=O)O (mixture of isomers) [misoprostol acid]
topical vasodilation [1]: equivalent strong topical vasodilation

COc1ccc(Cc2nccc3cc(OC)c(OC)cc23)cc1OC [papaverine]
subjects having a positive pharmacological outcome ([2]; hormonal ED (N = 1), intracavernosal injection, 1 ml of 4%): 0
subjects having a positive pharmacological outcome ([2]; neurogenic ED (N = 5), intracavernosal injection, 1 ml of 4%): 2
subjects having a positive pharmacological outcome ([2]; psychogenic ED (N = 15), intracavernosal injection, 1 ml of 4%): 10
percent of subjects having a positive pharmacological outcome [2, 7]: 42%
subjects having a positive pharmacological outcome [2, 7]: 22
subjects having a positive pharmacological outcome ([2]; undetermined etiology (N = 7), intracavernosal injection, 1 ml of 4%): 3
subjects having a positive pharmacological outcome ([2]; vascular ED (N = 24), intracavernosal injection, 1 ml of 4%): 7

CCCCC(C)(O)C/C=C/[C@H]1[C@H](O)CC(=O)[C@@H]1CCCCCCC(=O)OC (mixture of isomers) [misoprostol, (11a 13E)-(±)-11,16-dihydroxy-16-methyl-9-oxoprost-13-en-1-oic acid methyl ester]
solubility in water (in words) (Solubility in water): water soluble
undesirable effect of oral therapy [3]: male impotence
single high dose that can cause systemic undesirable effects (fatigue, erythema and diarrhea) [4]: > 1000 micrograms
single high dose that can cause systemic undesirable effects (fatigue, erythema and diarrhea) ([4]; male): > 1800 micrograms
allergic or other topical reaction ([2]; application to glans penis or urethra): No allergic or any other topical reaction was reported except for redness of the glans
subjects having a positive pharmacological outcome ([2]; hormonal ED (N = 1), externally applied gel, 80-100 μg): 1
subjects having a positive pharmacological outcome ([2]; hormonal ED (N = 1), intraurethral applied gel, 80-100 μg): 1
subjects having a positive pharmacological outcome ([2]; neurogenic ED (N = 5), externally applied gel, 80-100 μg): 4
subjects having a positive pharmacological outcome ([2]; neurogenic ED (N = 5), intraurethral applied gel, 80-100 μg): 5
subjects having a positive pharmacological outcome ([2]; psychogenic ED (N = 15), externally applied gel, 80-100 μg): 13
subjects having a positive pharmacological outcome ([2]; psychogenic ED (N = 15), intraurethral applied gel, 80-100 μg): 14
percent of subjects having a positive pharmacological outcome [2, 8]: 62%
subjects having a positive pharmacological outcome [2, 8]: 32
percent of subjects having a positive pharmacological outcome [2, 9]: 73%
subjects having a positive pharmacological outcome [2, 9]: 38
subjects having a positive pharmacological outcome ([2]; undetermined etiology (N = 7), externally applied gel, 80-100 μg): 4
subjects having a positive pharmacological outcome ([2]; undetermined etiology (N = 7), intraurethral applied gel, 80-100 μg): 5
subjects having a positive pharmacological outcome ([2]; vascular ED (N = 24), externally applied gel, 80-100 μg): 10
subjects having a positive pharmacological outcome ([2]; vascular ED (N = 24), intraurethral applied gel, 80-100 μg): 13
single higher dose allowed, undesirable effects reduced or eliminated [5]: > 2000 micrograms

CCCCC[C@H](O)/C=C/[C@H]1[C@H](O)CC(=O)[C@@H]1CCCCCCC(=O)O [alprostadil]
solubility in water [6]: 8000 micrograms/100 ml
subjects having a positive pharmacological outcome ([2]; hormonal ED (N = 1), intracavernosal injection, 0.5 ml of 1.0 mg/ml): 1
subjects having a positive pharmacological outcome ([2]; hormonal ED (N = 1), intraurethral ointment or γ-cyclodextrin complex in K-Y jelly, 1000 μg PGE1 in 0.1 ml): 0
subjects having a positive pharmacological outcome ([2]; neurogenic ED (N = 5), intracavernosal injection, 0.5 ml of 1.0 mg/ml): 4
subjects having a positive pharmacological outcome ([2]; neurogenic ED (N = 5), intraurethral ointment or γ-cyclodextrin complex in K-Y jelly, 1000 μg PGE1 in 0.1 ml): 1
subjects having a positive pharmacological outcome ([2]; psychogenic ED (N = 15), intracavernosal injection, 0.5 ml of 1.0 mg/ml): 11
subjects having a positive pharmacological outcome ([2]; psychogenic ED (N = 15), intraurethral ointment or γ-cyclodextrin complex in K-Y jelly, 1000 μg PGE1 in 0.1 ml): 9
percent of subjects having a positive pharmacological outcome [2, 10]: 60%
subjects having a positive pharmacological outcome [2, 10]: 31
percent of subjects having a positive pharmacological outcome [2, 11]: 31%
subjects having a positive pharmacological outcome [2, 11]: 16
subjects having a positive pharmacological outcome ([2]; undetermined etiology (N = 7), intracavernosal injection, 0.5 ml of 1.0 mg/ml): 5
subjects having a positive pharmacological outcome ([2]; undetermined etiology (N = 7), intraurethral ointment or γ-cyclodextrin complex in K-Y jelly, 1000 μg PGE1 in 0.1 ml): 1
subjects having a positive pharmacological outcome ([2]; vascular ED (N = 24), intracavernosal injection, 0.5 ml of 1.0 mg/ml): 10
subjects having a positive pharmacological outcome ([2]; vascular ED (N = 24), intraurethral ointment or γ-cyclodextrin complex in K-Y jelly, 1000 μg PGE1 in 0.1 ml): 5
